The values that follow come from article PMC6161602, “Synthesis and characterisation of (Z)-styrylbenzene derivatives as potential selective anticancer agents” (Journal of Enzyme Inhibition and Medicinal Chemistry, 2018).

Like-named read-outs stand apart in the source and are kept apart here. Where only a bound is given, the exact number is not on record here.

The subject of data set [1] is L-02 normal liver cell. As to the kind of experiment: MTT cell growth inhibition assay, L-02 (normal). The settings on record: 48 h incubation, L-02 normal cells. In kind it is cell-based, human. The text has this:
(§1) All human cell lines were used in this study. MGC-803 late-stage differentiation gastric cancer cell, A549 lung cancer cell, HepG2 hepatoma cell, AGS gastric cancer cell, BEL-7402 liver cancer cell, HCT-116 colorectal cancer cell, HeLa cervical cancer cell, SGC-7901 early differentiation gastric cancer cell, L-02 normal liver cell, MCF-7 breast cancer cell, and MCF-10A normal breast cell were initially purchased from American Type Culture Collection (ATCC, Manassas, VA, USA). RPMI-1640 media, Dulbecco’s modified Eagle’s medium (DMEM), and foetal bovine serum (FBS) were provided from Gibco Company (Grand Island, NY, USA). The cells were maintained in DMEM or RPMI-1640, supplemented with 10% FBS, 100 IU/mL penicillin and […] (Grand Island, NY, USA), and at 37 °C in a humidified atmosphere containing 5% CO2.
(§2) Cells were plated in 96-well plates at a density of 30–40% to ensure exponential growth throughout the experimental period, and then allowed to adhere for 1 day[21]. Next, the cells were treated with four serial concentrations (1, 10, 50, and 100 µM) of each compound. Taxol, CA-4, and CA-4P (phosphorylated form of CA-4) were used as positive controls. After 48 h incubation, MTT solution was added to each well at a final concentration of 2 mg/mL, and incubated for an additional 4 h. Next, the MTT solution was removed and 150 µL of dimethyl sulphoxide (DMSO)/well was added (Sigma-Aldrich, St Louis, MO, USA). The plates were shaken vigorously at RT to ensure complete solubilisation, and absorption at 492 nm was determined.
(§3) According to standard protocol, preliminary in vitro anti-proliferative activities of the synthesised compounds were evaluated by MTT assay, using nine human cancer cell lines (MGC-803, A549, HepG2, AGS, BEL-7402, HCT116, HeLa, SGC-7901, and MCF-7) and two normal human cell lines (L-02 and MCF-10A), and compared with those of CA-4, CA-4P, and taxol.

Data set [2] concerns MCF-7 breast cancer cell. Nature of the data set: MTT cell growth inhibition assay, MCF-7. The format is cell-based, human. The settings on record: for IC50: MTT, 48 h incubation, MCF-7.
Description: as §1, §2, §3

Data set [3] concerns HeLa cervical cancer cell. Nature of the data set: MTT cell growth inhibition assay, HeLa. The format is cell-based, human. The conditions noted are these: 48 h incubation.
Description: as §1, §2, §3

Data set [4] relates to HepG2 hepatoma cell. Nature of the data set: MTT cell growth inhibition assay, HepG-2. The format is cell-based, human. The conditions noted are these: MTT, 48 h incubation, HepG-2.
Description: as §1, §2, §3

Data set [5] has as its system SGC-7901 early differentiation gastric cancer cell. Nature of the data set: MTT cell growth inhibition assay, SGC-7901. The format is cell-based, human. The settings on record: 48 h incubation.
Description: as §1, §2, §3

Data set [6] deals with MGC-803 cells. Nature of the data set: MTT cell growth inhibition assay, MGC-803. The conditions noted are these: for IC50: MTT, 48 h incubation, MGC-803; for SI IC50 (L-02/MGC-803): selectivity index, IC50 (L-02)/IC50 (MGC-803). The format is cell-based, human.
Description: as §1, §2, §3

In data set [7] the test system is BEL-7402 cells. Nature of the data set: MTT cell growth inhibition assay, BEL-7402. In kind it is cell-based, human. The conditions noted are these: for IC50: MTT, 48 h incubation, Bel-7402.
Description: as §1, §2, §3

Data set [8] has as its system HCT116 cells. Nature of the data set: MTT cell growth inhibition assay, HCT116. In kind it is cell-based, human. The settings on record: for IC50: MTT, 48 h incubation, HCT116.
Description: as §1, §2, §3

Data set [9] has as its system AGS cells. Nature of the data set: MTT cell growth inhibition assay, AGS. In kind it is cell-based, human. The settings on record: for IC50: MTT, 48 h incubation, AGS.
Description: as §1, §2, §3

Data set [10] concerns A549 lung cancer cell. Nature of the data set: MTT cell growth inhibition assay, A549. In kind it is cell-based, human. The conditions noted are these: for IC50: MTT, 48 h incubation, A549.
Description: as §1, §2, §3

The test system of data set [11] is MCF-10A normal breast cell. As to the kind of experiment: MTT cell growth inhibition assay, MCF-10A (normal). The format is cell-based, human. The settings on record: 48 h incubation, MCF-10A normal cells.
Description: as §1, §2, §3

Setting [12] is: selectivity index, IC50 (MCF-10A)/IC50 (MCF-7).
Where [13] appears, read: selectivity index, IC50 (L-02)/IC50 (HCT116).

Usually IC50 stands for the midpoint of a concentration-inhibition curve. Higher therefore signals weaker potency in that assay. One may read the melting point as the temperature, or range, at which the solid turns liquid. `Cc1ccc(/C=C(\C#N)c2ccc(C)cc2)cc1` [Compound 13a, (Z)-2,3-Di-p-tolylacrylonitrile] registered a melting point of 68 to 70 °C. The compound further gave an IC50 in data set [1] (Homo sapiens) above 100 µM. In addition, the IC50 in [2] (Homo sapiens, MCF7) is above 100 µM. The 50% inhibitory concentration (IC50) in data set [3] (Homo sapiens) was above 100 µM. This compound also gave a half-inhibitory concentration (IC50) in [4] (Homo sapiens, HepG2) above 100 µM. In data set [5] (Homo sapiens), this compound came in with a half-maximal inhibitory concentration (IC50) above 100 µM. The compound also returned an IC50 in data set [6] (Homo sapiens, MGC-803, 48 h) above 100 µM. The same compound had an IC50 in [7] (Homo sapiens) above 100 µM. Also, the IC50 in data set [8] (Homo sapiens, HCT-116) is above 100 µM. This compound also registered a half-inhibitory concentration (IC50) in data set [9] (Homo sapiens) of 27.9 ± 5.84 µM. The same compound displayed an IC50 in data set [10] (Homo sapiens) above 100 µM. The compound further showed a half-maximal inhibitory concentration (IC50) in data set [11] (Homo sapiens) above 100 µM.

`CCc1ccc(/C=C(\C#N)c2ccc(C)cc2)cc1` [Compound 13b, (Z)-3-(4-Ethylphenyl)-2-(p-tolyl)acrylonitrile] gave a melting point of 112 to 114 °C. The same compound displayed an IC50 in [1] (Homo sapiens) above 100 µM. The same compound returned a half-inhibitory concentration (IC50) in [2] (Homo sapiens, MCF7) of 35 ± 14.8 µM. The compound further had an IC50 in [3] (Homo sapiens) above 100 µM. In [4] (Homo sapiens, HepG2), this compound returned a half-inhibitory concentration (IC50) above 100 µM. This compound registered a 50% inhibitory concentration (IC50) in data set [5] (Homo sapiens) above 100 µM. For the same compound, the IC50 in data set [6] (Homo sapiens, MGC-803, 48 h) is above 100 µM. Moreover, the IC50 in data set [7] (Homo sapiens) is above 100 µM. The IC50 in data set [8] (Homo sapiens, HCT-116) is above 100 µM. Further, the IC50 in data set [9] (Homo sapiens) turned out to be 26.5 ± 3.89 µM. In data set [10] (Homo sapiens), this compound had a half-maximal inhibitory concentration (IC50) above 100 µM. In data set [11] (Homo sapiens), this compound came in with a 50% inhibitory concentration (IC50) of 85.7 ± 3.12 µM.

In the case of `COc1cc(/C(C#N)=C/c2ccc(C(C)C)cc2)cc(OC)c1OC` [Compound 6f, (Z)-3-(4-Isopropylphenyl)-2-(3,4,5-trimethoxyphenyl)acrylonitrile], the melting point is 156 to 158 °C. The compound further displayed an IC50 in [1] (Homo sapiens) above 100 µM. The same compound returned a concentration for half-maximal inhibition (IC50) in data set [2] (Homo sapiens, MCF7) of 4.37 ± 2.8 µM. The “SI IC50 (MCF-10A/MCF-7)” value in [2] (setting [12]) was above 1.3. For the same compound, the IC50 in [3] (Homo sapiens) is above 100 µM. The same compound gave a half-maximal inhibitory concentration (IC50) in [4] (Homo sapiens, HepG2) above 100 µM. The concentration for half-maximal inhibition (IC50) in [5] (Homo sapiens) was above 100 µM. This compound also yielded an IC50 in data set [6] (Homo sapiens, MGC-803, 48 h) of 7.21 ± 3.65 µM. The “SI IC50 (L-02/MGC-803)” value in [6] is above 13.8. Also, the half-maximal inhibitory concentration (IC50) in data set [7] (Homo sapiens) is 0.72 ± 0.01 µM. Further, the “SI IC50 (L-02/BEL-7402)” value in data set [7] (selectivity index, IC50 (L-02)/IC50 (BEL-7402)) is above 138.8. For the same compound, the concentration for half-maximal inhibition (IC50) in data set [8] (Homo sapiens, HCT-116) amounted to 0.17 ± 0.1 µM. In data set [8] (setting [13]), the “SI IC50 (L-02/HCT116)” value is reported as above 588.2. Besides, the IC50 in data set [9] (Homo sapiens) is 1.33 ± 0.15 µM. Moreover, the “SI IC50 (L-02/AGS)” value in data set [9] (selectivity index, IC50 (L-02)/IC50 (AGS)) was above 75.1. The same compound returned a 50% inhibitory concentration (IC50) in data set [10] (Homo sapiens) of 36.62 ± 0.134 µM. Moreover, the “SI IC50 (L-02/A549)” value in data set [10] (selectivity index, IC50 (L-02)/IC50 (A549)) is recorded as above 2.7. In data set [11] (Homo sapiens), this compound returned an IC50 of 5.79 ± 0.48 µM.

With `COc1ccc(/C=C\c2cc(OC)c(OC)c(OC)c2)cc1OP(=O)(O)O` [CA-4P, reference compound], the IC50 is 2.67 ± 0.61 µM in data set [1]; 0.48 ± 0.25 µM in [2]; above 100 µM in data set [3]; above 100 µM in [4]; 0.12 ± 0.03 µM in data set [5]; 0.03 ± 0.02 µM in [6]. Besides, the half-maximal inhibitory concentration (IC50) in [7] was 5.45 ± 2.04 µM; in data set [8], 0.59 ± 0.22 µM; in data set [9], 4.73 ± 0.22 µM; in data set [10], above 100 µM; in data set [11], 14.6 ± 1.36 µM. The “SI IC50 (MCF-10A/MCF-7)” value in [2] (setting [12]) is reported as above 30.3. Also, in [6], the “SI IC50 (L-02/MGC-803)” value is recorded as above 89.0. Besides, in data set [8] (setting [13]), the “SI IC50 (L-02/HCT116)” value is reported as above 4.5.

Consider `COc1ccc(/C=C\c2cc(OC)c(OC)c(OC)c2)cc1O` [CA-4, (Z)-2-methoxy-5–(3,4,5-trimethoxystyryl) phenol, reference compound], for which the IC50 in data set [1] (Homo sapiens) is 1.1 ± 0.03 µM; in data set [2] (Homo sapiens, MCF7), 0.22 ± 0.09 µM; in data set [3] (Homo sapiens) it was above 100 µM; in data set [4] (Homo sapiens, HepG2) it was above 100 µM; in data set [5] (Homo sapiens), 0.3 µM; in data set [6] (Homo sapiens, MGC-803, 48 h) it was 0.06 ± 0.02 µM. Also, the IC50 in data set [7] (Homo sapiens) is 2.02 ± 0.03 µM; in data set [8] (Homo sapiens, HCT-116) it was 0.16 µM; in data set [9] (Homo sapiens), 3.42 ± 0.03 µM; in data set [10] (Homo sapiens), above 100 µM; in data set [11] (Homo sapiens), 3.23 ± 1.21 µM. Moreover, the “SI IC50 (MCF-10A/MCF-7)” value in data set [2] is above 14.6. The “SI IC50 (L-02/HCT116)” value in data set [8] is on record as above 6.8.
